Experimental data published in patent US20220274947A1, “NOVEL HETEROARYL-TRIAZOLE COMPOUNDS AS PESTICIDES” (Bayer Aktiengesellschaft, priority 2019, published 2022).

Tests used:
Type in all cases: in vivo
[1] = system: Rhipicephalus microplus; experiment: Rhipicephalus (Boophilus) microplus in-vitro contact test, larval cattle tick, strain Parkhurst (BOOPMI Cont); details: application rate 5 μg/cm^2 (=500 g/ha), tick larvae, after 48 hours, read-out: activity (efficacy: 100% means all larvae are dead or moribund)
Description: Rhipicephalus (Boophilus) Microplus—In-Vitro Contact Tests Larval Cattle Tick (Strain Parkhurst, Resistant Against Synthetic Pyrethroids) (BOOPMI Cont)
9 mg compound is solved in 1 mL acetone and diluted with acetone to the desired concentration. 250 μL of the test solution is filled in 25 mL glass test tubes and homogeneously distributed on the inner walls by rotation and tilting on a shaking device (2 h at 30 rpm). With a compound concentration of 900 ppm, an inner surface of 44.7 cm^2 and a homogeneous distribution, a dose of 5 μg/cm^2 is achieved.
After the solvent has evaporated, each test tube is filled with 20-50 cattle tick larvae (Rhipicephalus microplus), closed with a perforated lid and incubated in a horizontal position at 85% relative humidity and 27° C. in an incubator. After 48 hours efficacy is determined. The larvae are patted on the ground of the tubes and negative geotactic behavior is recorded.
An efficacy of 100% means all larvae are dead or moribund; 0% means no larvae are dead or moribund.

[2] = system: Diabrotica balteata; experiment: Diabrotica balteata spray test; details: 168 h, wheat seeds, larvae, after 7 days, read-out: activity (efficacy: 100% means all seedlings have grown up like in the untreated, uninfected control); for pest or weed control at 32 µg/disc, 100 g/ha: application rate 100 g/ha (=32 μg/well)
Description: Diabrotica balteata—Spray Test Solvent: 78.0 parts by weight of acetone • • 1.5 parts by weight of dimethylformamide Emulsifier: alkylarylpolyglycol ether
(§1) To produce a suitable preparation of active compound, 1 part by weight of active compound is mixed with the stated amount of solvent, and the concentrate is diluted with water, containing an emulsifier concentration of 1000 ppm, to the desired concentration. Further test concentrations are prepared by dilution with emulsifier containing water.
Soaked wheat seeds (Triticum aestivum) are placed in a multiple well plate filled with agar and some water and are incubated for 1 day to germinate (5 seeds per well). The germinated wheat seeds are sprayed with a test solution containing the desired concentration of the active ingredient. Afterwards each unit is infected with 10-20 larvae of the banded cucumber beetle (Diabrotica balteata).
After 7 days efficacy in % is determined. 100% means all the seedlings have grown up like in the untreated, uninfected control; 0% means none of the seedlings have grown.

[3] = system: Myzus persicae; experiment: Myzus persicae oral test; details: 120 h, read-out: activity (mortality)
Description: Myzus persicae—Oral Test Solvent: 100 parts by weight acetone
To produce a suitable preparation of active compound, 1 part by weight of active compound is mixed with the stated amount of solvent, and the concentrate is diluted with water to the desired concentration.
50 μL compound solution is filled in microtiter plates and 150 μL IPL41 insect medium (33%+15% sugar) is added to obtain a total volume of 200 μL per well. Afterwards the plates are sealed with parafilm through which a mixed population of the green peach aphid (Myzus persicae) can suck on the compound preparation.
After 5 days mortality in % is determined. 100% means all aphids have been killed and 0% means none of the aphids have been killed.

[4] = system: Ctenocephalides felis; experiment: Ctenocephalides felis oral test (CTECFE Oral); details: 48 h, read-out: activity (mortality)
Description: Ctenocephalides felis—Oral Test (CTECFE Oral) Solvent: dimethyl sulfoxide
To produce a suitable preparation of active compound, 10 mg of active compound are dissolved in 0.5 mL solvent, and the concentrate is diluted with cattle blood to the desired concentration.
Approximately 20 adult unfed cat fleas (Ctenocephalides felis) are placed in flea chambers. The blood chamber, sealed with parafilm on the bottom, are filled with cattle blood supplied with compound solution and placed on the gauze covered top of the flea chamber, so that the fleas are able to suck the blood. The blood chamber is heated to 37° C. whereas the flea chamber is kept at room temperature.
After 2 days mortality in % is determined. 100% means all the fleas have been killed; 0% means none of the fleas have been killed.

[5] = system: Spodoptera frugiperda; experiment: Spodoptera frugiperda spray test; details: in Zea mays, 168 h, read-out: activity (mortality)
Description: Spodoptera Fruaiperda—Spray Test
Solvent: 78.0 parts by weight acetone • 1.5 parts by weight dimethylformamide Emulsifier: alkylarylpolyglycol ether
as §1, with “solvents” for “solvent,”, “and” for “and the concentrate”
Maize (Zea mays) leaf sections are sprayed with a preparation of the active ingredient of the desired concentration. Once dry, the leaf sections are infested with fall armyworm larvae (Spodoptera frugiperda).
After 7 days mortality in % is determined. 100% means all caterpillars have been killed and 0% means none of the caterpillars have been killed.

[6] = system: Rhipicephalus microplus; experiment: Rhipicephalus (Boophilus) microplus injection test (BOOPMI Inj); details: 168 h, injection into adult engorged female ticks, egg deposition after 7 days, read-out: activity (efficacy: 100% means all eggs are infertile); for pest or weed control at 0.004 mg: application rate 4 μg/tick; for pest or weed control at 0.02 mg: application rate 20 μg/tick
Description: Rhipicephalus (Boophilus) Microplus—Injection Test (BOOPMI Inj)
Solvent: dimethyl sulfoxide
To produce a suitable preparation of active compound, 10 mg of active compound are dissolved in 0.5 mL solvent, and the concentrate is diluted with solvent to the desired concentration.
Five adult engorged female ticks (Rhipicephalus microplus) are injected with 1 μL compound solution into the abdomen. The ticks are transferred into replica plates and incubated in a climate chamber.
After 7 days egg deposition of fertile eggs is monitored. Eggs where fertility is not visible are stored in a climate chamber till hatching after about 42 days. An efficacy of 100% means all eggs are infertile; 0% means all eggs are fertile.

[7] = system: Musca domestica strain WHO—N; experiment: Musca domestica test (MUSCDO surface treatment & contact assay); details: surface concentration 20 mg/m^2, glazed tile, exposure 30 minutes, 24 hours after contact, read-out: efficacy (mortality)
Description: Musca domestica Test (MUSCDO Surface Treatment & Contact Assay) Solvent: Aceton+2000 ppm rapeseed oil methyl ester (RME)
(§2) In order to produce a sufficient, active ingredient containing solution it is necessary to solve the test compound in the solvent-mix (acetone at 2 mg/ml/RME 2000 ppm). This solution is pipetted onto a glazed tile and after evaporation of the acetone, adult flies of the species Musca domestica strain WHO—N are placed onto the dried surface. The exposure time is 30 minutes. Mortality in percent (%) is determined 24 hours after contact of the insects to the treated surface. 100% mortality means that all tested insects are dead, whereas 0% means that no insect died.

[8] = system: Aedes aegypti strain MONHEIM; experiment: Aedes aegypti test (AEDSAE surface treatment & contact assay); details: exposure 30 minutes, 24 hours after contact, read-out: efficacy (mortality); for mortality at 20 mg/m2: surface concentration 20 mg/m^2, glazed tile; for mortality at 4 mg/m2: surface concentration 4 mg/m^2, glazed tile
Description: Aedes aegypti Test (AEDSAE Surface Treatment & Contact Assay) Solvent: Aceton+2000 ppm rapeseed oil methyl ester (RME)
as §2, with “mosquitoes” for “flies”, “Aedes aegypti” for “Musca domestica”, “MONHEIM” for “WHO—N”

[9] = system: Rhipicephalus sanguineus; experiment: Rhipicephalus sanguineus in-vitro contact test, adult brown dog ticks (RHIPSA Cont); details: 48 h, after 48 hours, read-out: activity (efficacy: 100% means all ticks are dead or moribund); for pest or weed control at 1 µg/cm2, 100 g/ha: application rate 1 μg/cm^2 (=100 g/ha); for pest or weed control at 5 µg/cm2, 500 g/ha: application rate 5 μg/cm^2 (=500 g/ha)
Description: Rhipicephalus sanguineus-In-Vitro Contact Tests with Adult Brown Dog Ticks ([…] Cont) 9 mg compound is solved in 1 mL acetone and diluted with acetone to the desired concentration. 250 μL of the test solution is filled in 25 mL glass test tubes and homogeneously distributed on the inner walls by rotation and tilting on a shaking device (2 h at 30 rpm). […] After 48 hours efficacy is determined. The ticks are patted on the ground of the tubes and are incubated on a heating plate at 45-50° C. for at most 5 minutes. Immotile or uncoordinated moving ticks, which are not able to escape the heat by climbing upwards, are marked as dead or moribund.

SMILES | pest or weed control at 5 µg/cm2 [1] | pest or weed control at 32 µg/disc, 100 g/ha [2] | mortality at 4 ppm [3] | mortality at 100 ppm [4] | mortality at 100 g/ha [5] | pest or weed control at 0.004 mg [6] | mortality at 20 mg/m2 [7] | pest or weed control at 160 µg/disc, 500 g/ha ([2]; application rate 500 g/ha (=160 μg/well)) | mortality at 500 g/ha [5] | pest or weed control at 0.02 mg [6] | mortality at 20 mg/m2 [8] | pest or weed control at 1 µg/cm2, 100 g/ha [9] | pest or weed control at 5 µg/cm2, 500 g/ha [9] | mortality at 4 mg/m2 [8]
CC(NC(=O)c1cc(C(F)(F)F)cc(C(F)(F)F)c1)c1nc(Br)nn1-c1ccc(C#N)cn1 (racemic) [I-48, 3,5-di(trifluoromethyl)-N-{1-[3-bromo-1-(3-cyano-pyridin-6-yl)-1H-1,2,4-triazol-5-yl]ethyl}-benzamide] | 100% | 100% | 90% | 100% | 100% | 100% | – | – | – | – | – | – | – | –
COc1nc([C@H](C)NC(=O)c2cc(Cl)cc(C(F)(F)F)c2)n(-c2ccc(C#N)cn2)n1 [I-10, 3-chloro-N-{(1S)-1-[1-(5-cyanopyridin-2-yl)-3-methoxy-1H-1,2,4-triazol-5-yl]ethyl}-5-(trifluoromethyl)benzamide] | 100% | 100% | 100% | 100% | 100% | 100% | 80 to 100% | 100% | 100% | 100% | – | – | – | –
CC(C)c1nc([C@H](C)NC(=O)c2cncc(Br)c2)n(-c2ccc(C#N)cn2)n1 [I-27] | 90% | – | – | 100% | – | 100% | – | – | – | 100% | 80 to 100% | 100% | 100% | –
C[C@H](NC(=O)c1cc(Br)cc(C(F)(F)F)c1)c1nc(C2CC2)nn1-c1ccc(C#N)cn1 [I-31] | 100% | 100% | 100% | 100% | – | 100% | 80 to 100% | – | – | 100% | – | – | 80% | –
C[C@H](NC(=O)c1cc(Cl)cc(Br)c1)c1nc(C2CC2)nn1-c1ccc(C#N)cn1 [I-32] | 100% | 100% | 100% | 100% | 100% | 100% | – | – | – | 100% | – | 80% | 100% | –
C[C@H](NC(=O)c1cc(Cl)cc(OC(F)F)c1)c1nc(C2CC2)nn1-c1ccc(C#N)cn1 [I-34] | 90% | 100% | – | 100% | 100% | 100% | 80 to 100% | – | – | 100% | – | – | – | –
C[C@H](NC(=O)c1cc(Br)cc(C#N)c1)c1nc(C2CC2)nn1-c1ccc(C#N)cn1 [I-35] | 100% | 100% | – | 100% | – | 100% | 80 to 100% | – | – | 100% | 80 to 100% | – | – | –
Cc1nc([C@H](C)NC(=O)c2cncc(Br)c2)n(-c2ccc(C#N)cn2)n1 [II-49] | 100% | 100% | – | 100% | – | 100% | – | – | – | 100% | – | – | 100% | 80 to 100%
CC[C@H](NC(=O)c1cc(Cl)cc(C(F)(F)F)c1)c1ncnn1-c1ncc(OC(F)F)cn1 [II-64] | 100% | 100% | – | 100% | 100% | 100% | – | – | – | 100% | 80 to 100% | – | 80% | –
C[C@H](NC(=O)c1cc(Br)c(F)c(Br)c1)c1ncnn1-c1ccc(C#N)cn1 [II-82] | 100% | 80% | – | 100% | 100% | 100% | – | – | – | – | 80 to 100% | 80% | 80% | 80 to 100%
